Source: patent US20120179089A1, “SUBSTITUTED BIPYRIDINES FOR USE IN ORGANIC LIGHT-EMITTING DEVICES” (Nitto Denko Corporation, priority 2010, published 2012)

Legend:
[1] = Solubility observed on isolation; format: physicochemical
Protocol: 6,6′-di(benzo[d]thiazol-2-yl)-3,3′-bipyridine (17). A mixture of 9 (0.591 g, 2.03 mmol), 16 (0.700 g, 2.07 mmol), tetrakis(triphenylphosphine)palladium(0) (117 mg, 102 μmol), Na2CO3 (1.59 g, 15.0 mmol), H2O (15 mL) and THF (25 mL) was degassed with argon for about 20 min while stirring. The stirring reaction mixture was then maintained under argon at about 80° C. for about 19 h. Upon completion, the mixture was cooled to RT, filtered and the precipitate collected as a white solid (0.83 g, 97%).
2-(6′-(benzo[d]thiazol-2-yl)-3,3′-bipyridin-6-yl)benzo[d]oxazole (18). Following the procedure for 17, 11 (0.558 g, 2.03 mmol), 16 (0.700 g, 2.07 mmol),), tetrakis(triphenylphosphine)palladium(0) (117 mg, 102 μmol), Na2CO3 (1.59 g, 15.0 mmol), H2O (15 mL) and THF (25 mL) yielded an insoluble white solid (0.70 g, 84%) after filtration.

CHO-K1 cells = assay: Optical microscope images of cells after red light irradiation; format: cell-based, Chinese Hamster; details: ALA treated CHO-K1 cells after 30 J/cm^2 red light (630 nm) irradiation; FIG. 9B
[2] = tested on: CHO-K1 (Chinese Hamster Ovarian Cancer, ATCC, CRL-2243) cell line; assay: Conversion of ALA to protoporphyrin IX (PpIX) in cells, fluorescence emission; format: cell-based; details: ALA 1 mM and 2 mM, about 16 hrs at 37° C.; fluorescence emission at 635 nm
[3] = tested on: CHO-K1 (Chinese Hamster Ovarian Cancer, ATCC, CRL-2243) cell line; assay: Efficacy study: ALA plus red OLED light, MTT cell viability; format: cell-based; details: ALA about 1 mM or higher, 16 hrs incubation, OLED light (630 nm) dose of 30 J/cm^2, FIG. 10
[4] = tested on: age-related macular degeneration; assay: Phototherapy of age-related macular degeneration with red light emitting OLED; format: in vivo, person; details: about 6 mg/m^2 intravenously; retina illuminated about 15 minutes after start of infusion
pathological myopia = assay: Phototherapy of pathological myopia with red light emitting OLED; format: in vivo, person; details: about 6 mg/m^2 intravenously; retina illuminated about 15 minutes after start of infusion
[5] = tested on: presumed ocular histoplasmosis; set-up: species or system person; details: in vivo, iv

In the case of `c1ccc2oc(-c3ccc(-c4ccc(-c5nc6ccccc6s5)nc4)cn3)nc2c1` [Compound 18, 2-(6′-(benzo[d]thiazol-2-yl)-3,3′-bipyridin-6-yl)benzo[d]oxazole], the solubility [1] is reported as “insoluble”.
With `NCC(=O)CCC(=O)O` [ALA, 5-aminolevulinic acid] the “cell morphology / cell death by optical microscope” value (CHO-K1 cells) was “significant cell death”, the “generation of PpIX” value [2] was “confirmed” and the cell death [3] was ≥ 90%.
With `C=Cc1c(C)c2cc3nc(cc4[nH]c(cc5nc(cc1[nH]2)C(C)=C5CCC(=O)O)c(CCC(=O)OC)c4C)[C@@]1(C)C3=CC=C(C(=O)OC)[C@H]1C(=O)OC` [Verteporphin] the “patient's vision” value [4] was “anticipated to be stabilized”, the “patient's vision” value (pathological myopia) was “anticipated to be stabilized” and the “patient's vision” value [5] was “anticipated to be stabilized”.
With `c1ccc2sc(-c3ccc(-c4ccc(-c5nc6ccccc6s5)nc4)cn3)nc2c1` [Compound 17, 6,6′-di(benzo[d]thiazol-2-yl)-3,3′-bipyridine] the solubility [1] was “insoluble in numerous common organic solvents”.
